The test has as its target HCV NS5B polymerase (Hepatitis C virus genotype 1b, UniProt P26663). Briefly: NS5B Polymerase Inhibition Assay. Type of test: biochemical. The conditions noted are these: 50 nM enzyme, [α-33P]GTP, oligo (rG13)/poly rC, 75 min at 28° C. Here is the method:
NS5B Polymerase Inhibition Assay
Compounds were tested for HCV polymerase inhibition. Assays were performed in a 96-well streptavidin-coated FlashPlate using 50 nM enzyme, 0.5 μCi of [α-^33P]GTP, 0.63 μM GTP, and 250 nM 5′biotinylated oligo (rG13)/poly rC in 20 mM Tris-HCl, pH 7.5, 5 mM MgCl2, 20 mM NaCl, 5 mM dithiothreitol, and 0.1 g/L BSA. The reaction was stopped by aspiration after 75 min at 28° C. and the plate was washed several times. After washing, incorporated radioactivity was counted using a Microbeta scintillation counter.

As a reminder, the IC50 is the concentration that gives 50% inhibition. Low readings indicate higher potency, high ones lower potency.

Bounds are passed on as bounds.

Chain of HCV NS5B polymerase (P26663 2420-3010): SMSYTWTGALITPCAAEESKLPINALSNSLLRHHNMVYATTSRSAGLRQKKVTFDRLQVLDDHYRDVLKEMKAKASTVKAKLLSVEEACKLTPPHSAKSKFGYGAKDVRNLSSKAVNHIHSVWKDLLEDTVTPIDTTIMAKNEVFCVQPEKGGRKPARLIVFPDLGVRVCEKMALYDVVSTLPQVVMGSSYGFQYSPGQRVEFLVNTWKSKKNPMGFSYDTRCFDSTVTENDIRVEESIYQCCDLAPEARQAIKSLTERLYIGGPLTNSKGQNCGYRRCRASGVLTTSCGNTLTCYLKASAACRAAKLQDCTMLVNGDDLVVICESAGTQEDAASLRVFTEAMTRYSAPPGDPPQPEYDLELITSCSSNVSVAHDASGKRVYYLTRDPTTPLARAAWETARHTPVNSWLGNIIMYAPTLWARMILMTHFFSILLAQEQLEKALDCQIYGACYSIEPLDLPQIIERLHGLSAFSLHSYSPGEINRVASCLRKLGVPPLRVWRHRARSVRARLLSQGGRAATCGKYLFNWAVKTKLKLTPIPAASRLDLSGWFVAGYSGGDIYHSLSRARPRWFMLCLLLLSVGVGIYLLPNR

`CCCCc1nn(CCC(C)C)c(=O)c(C2=Nc3ccc(OC)cc3S(=O)(=O)N2)c1O` [Compound 35, 6-Butyl-5-hydroxy-4-(7-methoxy-1,1-dioxo-1,2-dihdyro-1λ^6-ben-zo[1,2,4]thiadiazin-3-yl)-2-(3-methyl-butyl)-2H-pyridazin-3-one] yielded an IC50 of less than 10 µM.

`CCCCc1nn(CCC(C)C)c(=O)c(C2=Nc3ccc(O)cc3S(=O)(=O)N2)c1O` [Compound 36, 6-Butyl-5-hydroxy-4-(7-hydroxy-1,1-dioxo-1,2-dihydro-1λ^6-ben-zo[1,2,4]thiadiazin-3-yl)-2-(3-methyl-butyl)-2H-pyridazin-3-one] came in with an IC50 of less than 10 µM.

Turning to `CCCCn1nc(CCC(C)C)c(O)c(C2=Nc3ccc(O)cc3S(=O)(=O)N2)c1=O` [Compound 38, 2-Butyl-5-hydroxy-4-(7-hydroxy-1,1-dioxo-1,2-dihydro-1λ^6-ben-zo[1,2,4]thiadiazin-3-yl)-6-(3-methyl-butyl)-2H-pyridazin-3-one], the IC50 is less than 10 µM.

Molecule `CCCCn1nc(CCC(C)C)c(O)c(C2=Nc3ccc(OCC(N)=O)cc3S(=O)(=O)N2)c1=O` [Compound 39, 2-{3-[2-Butyl-5-hydroxy-6-(3-methyl-butyl)-3-oxo-2,3-di-hydro-pyridazin-4-yl]-1,1-dioxo-1,2-dihydro-1λ^6-ben-zo[1,2,4]thiadiazin-7-yloxy}-acetamide] showed an IC50 of less than 10 µM.

`CCCCc1nn(CCCC)c(=O)c(C2=Nc3ccc(OC)cc3S(=O)(=O)N2)c1O` [Compound 40, 2,6-Dibutyl-5-hydroxy-4-(7-methoxy-1,1-dioxo-1,2-dihydro-1λ^6-ben-zo[1,2,4]thiadiazin-3-yl)-2H-pyridazin-3-one]: the IC50 is 10 to 50 µM.

Molecule `CC(C)c1nn(Cc2ccccc2)c(=O)c(C2=Nc3ccccc3S(=O)(=O)N2)c1O` [Compound 41, 2-Benzyl-4-(1,1-dioxo-1,2-dihydro-1λ^6-ben-zo[1,2,4]thiadiazin-3-yl)-5-hydroxy-6-isopropyl-2H-py-ridazin-3-one] returned an IC50 of 10 to 50 µM.

Regarding `CCCc1nn(CCC(C)C)c(=O)c(C2=Nc3ccc(OC)cc3S(=O)(=O)N2)c1O` [Compound 42, 5-Hydroxy-4-(7-methoxy-1,1-dioxo-1,2-dihydro-1λ^6-ben-zo[1,2,4]thiadiazin-3-yl)-2-(3-methyl-butyl)-6-propyl-2H-py-ridazin-3-one], the IC50 is less than 10 µM.

Take `CCCCc1nn(CCCC)c(=O)c(C2=Nc3ccc(O)cc3S(=O)(=O)N2)c1O` [Compound 45, 2,6-Dibutyl-5-hydroxy-4-(7-hydroxy-1,1-dioxo-1,2-dihydro-1λ^6-ben-zo[1,2,4]thiadiazin-3-yl)-2H-pyridazin-3-one]: the IC50 was less than 10 µM.

The molecule `CCCc1nn(CCC(C)C)c(=O)c(C2=Nc3ccc(O)cc3S(=O)(=O)N2)c1O` [Compound 46, 5-Hydroxy-4-(7-hydroxy-1,1-dioxo-1,2-dihydro-1λ^6-ben-zo[1,2,4]thiadiazin-3-yl)-2-(3-methyl-butyl)-6-propyl-2H-py-ridazin-3-one] gave an IC50 of less than 10 µM.

For the molecule `CCCCc1nn(CCCC)c(=O)c(C2=Nc3ccc(OCC(N)=O)cc3S(=O)(=O)N2)c1O` [Compound 47, 2-[3-(2,6-Dibutyl-5-hydroxy-3-oxo-2,3-dihydro-pyridazin-4-yl)-1,1-di-oxo-1,2-dihydro-1λ^6-benzo[1,2,4]thiadiazin-7-yl-oxy]-acetamide], the concentration for half-maximal inhibition (IC50) was less than 10 µM.

As for `CCCc1nn(CCC(C)C)c(=O)c(C2=NS(=O)(=O)c3cc(OCC(N)=O)ccc3N2)c1O` [Compound 49, 2-{3-[5-Hydroxy-2-(3-methyl-butyl)-3-oxo-6-propyl-2,3-di-hydro-pyridazin-4-yl]-1,1-dioxo-1,2-dihydro-1λ^6-ben-zo[1,2,4]thiadiazin-7-yloxy}-acetamide], the IC50 is less than 10 µM.

`CC(C)CCn1nc(-c2cccs2)c(O)c(C2=NS(=O)(=O)c3sc(Cl)cc3N2)c1=O` [Compound 50, 4-(2-Chloro-7,7-dioxo-4,7-dihydro-1,7λ^6-dithia-4,6-diaza-inden-5-yl)-5-hydroxy-2-(3-methyl-butyl)-6-thiophen-2-yl-2H-py-ridazin-3-one]: the IC50 was in the range of 10 to 50 µM.

Take `CC(C)CCc1nn(CCC(C)C)c(=O)c(C2=NS(=O)(=O)c3cc(OCC(N)=O)ccc3N2)c1O` [Compound 51, 2-{3-[5-Hydroxy-2,6-bis-(3-methyl-butyl)-3-oxo-2,3-dihydro-py-ridazin-4-yl]-1,1-dioxo-1,2-dihydro-1λ^6-ben-zo[1,2,4]thiadiazin-7-yloxy}-acetamide]: the IC50 was less than 10 µM.

The molecule `CC(C)c1nn(CCC(C)(C)C)c(=O)c(C2=Nc3ccccc3S(=O)(=O)N2)c1O` [Compound 53, 2-(3,3-Dimethyl-butyl)-4-(1,1-dioxo-1,2-dihydro-1λ^6-ben-zo[1,2,4]thiadiazin-3-yl)-5-hydroxy-6-isopropyl-2H-py-ridazin-3-one] yielded an IC50 of less than 10 µM.

Molecule `COc1ccc2c(c1)S(=O)(=O)NC(c1c(O)c(-c3nccs3)nn(CCC(C)C)c1=O)=N2` [Compound 54, 5-Hydroxy-4-(7-methoxy-1,1-dioxo-1,2-dihydro-1λ^6-ben-zo[1,2,4]thiadiazin-3-yl)-2-(3-methyl-butyl)-6-thiazol-2-yl-2H-py-ridazin-3-one] showed an IC50 of less than 10 µM.

Turning to `COc1ccc2c(c1)S(=O)(=O)NC(c1c(O)c(-c3cccs3)nn(CCC(C)(C)C)c1=O)=N2` [Compound 56, 2-(3,3-Dimethyl-butyl)-5-hydroxy-4-(7-methoxy-1,1-dioxo-1,2-di-hydro-1λ^6-benzo[1,2,4]thiadiazin-3-yl)-6-thiophen-2-yl-2H-py-ridazin-3-one], the IC50 is less than 10 µM.

The molecule `CC(C)c1nn(CCC2CC2)c(=O)c(C2=Nc3ccccc3S(=O)(=O)N2)c1O` [Compound 57, 2-(2-Cyclopropyl-ethyl)-4-(1,1-dioxo-1,2-dihydro-1λ^6-ben-zo[1,2,4]thiadiazin-3-yl)-5-hydroxy-6-isopropyl-2H-py-ridazin-3-one] returned an IC50 of less than 10 µM.

For `COc1ccc2c(c1)S(=O)(=O)NC(c1c(O)c(CCC#N)nn(CCC(C)(C)C)c1=O)=N2` [Compound 58, 3-[1-(3,3-Dimethyl-butyl)-4-hydroxy-5-(7-methoxy-1,1-dioxo-1,2-di-hydro-1λ^6-benzo[1,2,4]thiadiazin-3-yl)-6-oxo-1,6-di-hydro-pyridazin-3-yl]-propionitrile], the IC50 was in the range of 10 to 50 µM.

`Cc1ccc(-c2nn(Cc3ccccc3)c(=O)c(C3=Nc4ccccc4S(=O)(=O)N3)c2O)s1` [Compound 59, 2-Benzyl-4-(1,1-dioxo-1,2-dihydro-1λ^6-ben-zo[1,2,4]thiadiazin-3-yl)-5-hydroxy-6-(5-methyl-thiophen-2-yl)-2H-py-ridazin-3-one] yielded an IC50 of less than 10 µM.

For the molecule `COc1ccc2c(c1)S(=O)(=O)NC(c1c(O)c(-c3sccc3C)nn(CCC(C)C)c1=O)=N2` [Compound 61, 5-Hydroxy-4-(7-methoxy-1,1-dioxo-1,2-dihydro-1λ^6-ben-zo[1,2,4]thiadiazin-3-yl)-2-(3-methyl-butyl)-6-(3-methyl-thio-phen-2-yl)-2H-pyridazin-3-one], the IC50 is less than 10 µM.

In the case of `CC(C)c1nn(CC2CCC2)c(=O)c(C2=Nc3ccccc3S(=O)(=O)N2)c1O` [Compound 63, 2-Cyclobutylmethyl-4-(1,1-dioxo-1,2-dihydro-1λ^6-ben-zo[1,2,4]thiadiazin-3-yl)-5-hydroxy-6-isopropyl-2H-py-ridazin-3-one], the IC50 was 10 to 50 µM.

Consider `Cc1ccc(-c2nn(CCC(C)(C)C)c(=O)c(C3=NS(=O)(=O)c4cc(OCC(N)=O)ccc4N3)c2O)s1` [Compound 64, 2-{3-[2-(3,3-Dimethyl-butyl)-5-hydroxy-6-(5-methyl-thiophen-2-yl)-3-ox-o-2,3-dihydro-pyridazin-4-yl]-1,1-dioxo-1,2-di-hydro-1λ^6-benzo[1,2,4]thiadiazin-7-yloxy}-acetamide], for which the IC50 was less than 10 µM.

In the case of `Cc1ccsc1-c1nn(CCC(C)C)c(=O)c(C2=NS(=O)(=O)c3cc(OCC(N)=O)ccc3N2)c1O` [Compound 65, 2-{3-[5-Hydroxy-2-(3-methyl-butyl)-6-(3-methyl-thiophen-2-yl)-3-ox-o-2,3-dihydro-pyridazin-4-yl]-1,1-dioxo-1,2-dihydro-1λ^6-ben-zo[1,2,4]thiadiazin-7-yloxy}-acetamide], the IC50 was less than 10 µM.

With `COc1ccc2c(c1)S(=O)(=O)NC(c1c(O)c(C(C)(C)C)nn(CCC(C)(C)C)c1=O)=N2` [Compound 66, 6-tert-Butyl-2-(3,3-dimethyl-butyl)-5-hydroxy-4-(7-methoxy-1,1-di-oxo-1,2-dihydro-1λ^6-benzo[1,2,4]thiadiazin-3-yl)-2H-py-ridazin-3-one], the IC50 was in the range of 10 to 50 µM.

In the case of `CC(C)(C)CCn1nc(C(C)(C)C)c(O)c(C2=Nc3ccc(O)cc3S(=O)(=O)N2)c1=O` [Compound 67, 6-tert-Butyl-2-(3,3-dimethyl-butyl)-5-hydroxy-4-(7-hydroxy-1,1-di-oxo-1,2-dihydro-1λ^6-benzo[1,2,4]thiadiazin-3-yl)-2H-py-ridazin-3-one], the IC50 is less than 10 µM.

Source of the values: US20060189602A1, “Pyridazinone compounds” (Anadys Pharmaceuticals, Inc., priority 2004, published 2006).
